From publication PMC8596125, “Self‐Stabilized Supramolecular Assemblies Constructed from PEGylated Dendritic Peptide Conjugate for Augmenting Tumor Retention and Therapy” (Advanced Science, 2021)
“And” between values parts separate entries of the source, which are not always exact repeats. Equal entries are not always repeated.

Experiments:
[1] = tested on: 4T1 breast tumors; assay: In vivo / ex vivo fluorescence imaging and tumor retention; parameters: species or system mouse; conditions: BALB/c nude mice with 4T1 tumors, i.v. 5 mg Ppa kg-1, in vivo fluorescence imaging up to 14 d, n = 3
Text: Where AS is the absorbance of the sample, A100 is the absorbance of lysed erythrocytes in H2O (a positive control), and A0 is the absorbance of 0% hemolysis in PBS (a negative control).
1.3.12 Skin photosensitization
The backs of healthy BALB/c mice were depilated 3 days before treatment to ensure that all injures had recovered. The shaved mice were randomly divided into 4 groups: (a) SSAs + laser irradiation; (b) Ppa + laser irradiation; (c) laser irradiation; (d) control (without any treatment). The dose of Ppa was 5 mg Ppa kg-1. Right after administration, the anesthetized mice were irradiated by a 660 nm laser (0.26 W cm-2, […], 108 J cm-2). […] The degree of skin response was examined and scored according to Table S5, and Paraffin sections of the skin were stained with hematoxylin and eosin (H&E) according to the manufacturer's instructions.[3] […]
Plasma was diluted to 50-fold with DMSO for fluorescent measurements using a BioTek plate reader. The pharmacokinetic parameters were calculated using a two-compartment model by WinNonlin 5.2 software.
1.3.14 In vivo fluorescence imaging and biodistribution […]
Fluorescence signals were detected at 1 h, 3 h, 12h, 24 h, 2 d, 3 d, 5 d, 7 d, 9 d, 11 d […]
and 14 d post-intravenous injection by a small-animal in vivo fluorescence imaging system (CRi Maestro EX, USA) with excitation at […]. […]

[2] = In vivo pharmacokinetics; parameters: species or system mouse; conditions: healthy BALB/c mice, single i.v. 5 mg Ppa kg-1, plasma fluorescence, two-compartment model, mean ± s.d., n = 7
Experimental: 1.3.13 In vivo pharmacokinetics
Healthy pathogen-free BALB/c mice (5-6 weeks, female) were used to determine the pharmacokinetics of SSAs (n = 7). The mice were intravenously injected with Ppa and SSAs (5 mg Ppa kg-1), respectively. Blood (20 μL) was collected at diﬀerent time […]
Plasma was diluted to 50-fold with DMSO for fluorescent measurements using a BioTek plate reader. The pharmacokinetic parameters were calculated using a two-compartment model by WinNonlin 5.2 software. […]

[3] = tested on: 4T1 cells; assay: Cytotoxicity, CCK-8 assay, 4T1; type: cell-based, mouse
Experimental: The CCK-8 assay was used to examine the photodynamic therapeutic effect of SSAs on cell viability against three cell lines. 4×103 4T1 cells per well were seeded in a 96-well plate, and then incubated overnight. The cells were treated with different concentrations of Ppa and SSAs at an equivalent Ppa dose. After 24 h incubation, the medium was replaced with fresh one, and the wells were irradiated using a 660 nm laser with 1 J cm−2. After 24 h, the spent media was replaced and the cell viability was assessed using the CCK-8 reagent. The absorbance at […] of each well was recorded on a microplate reader. Untreated cells were served as a control. Results were presented as the average cell viability by following the manufacturer’s instruction. IC50 values were calculated by using nonlinear regression in software Graphpad Prism7. The cytotoxicity of SSAs and Ppa with or without laser against A549 cell line was also measured through the same procedure.
The cytotoxicity of SSAs and PDP without laser irradiation was also measured by […]

Persistence of the fluorescence signal in tumors [1]: disappear on day 3 after injection
AUC (area under the drug concentration) [2]: 2600 ± 110 ng·h/mL
MRT (mean residence time) [2]: 3.64 ± 1.02 h
t1/2 (half-life of the drug) [2]: 4.29 ± 0.47 h and 4.29 h
SMILES: C=Cc1c(C)c2cc3nc(c4c5[nH]c(cc6nc(cc1[nH]2)C(C)=C6CC)c(C)c5C(=O)C4)[C@@H](CCC(=O)O)[C@@H]3C [Ppa, pyropheophorbide a]
Cytotoxicity with laser irradiation ([3]; 24 h incubation, 660 nm laser, CCK-8, n = 3): notable cytotoxicity
Concentration above which very cytotoxic without irradiation ([3]; no light, CCK-8): higher than 1 µg mL^−1
